Legend:
glycogen (GAA substrate) = test: Tissue glycogen levels in GAA knock-out mice after repeat rhGAA with chaperone; format: in vivo, mouse; conditions: 21 days after last injection
Method: Twelve week old GAA KO mice were administered recombinant human GAA (Myozyme) 20 mg/kg i.v. every other week for 8 weeks. […]
Repeat rhGAA administration studies were conducted in GAA knock-out mice to assess effects on tissue glycogen levels.
Twelve week old GAA KO mice were administered 20 mg/kg i.v. recombinant human GAA (Myozyme) every other week for 8 weeks. […] Tissues were collected 21 days after the last dose of rhGAA and the level of glycogen (GAA substrate) was measured.

[1] = system: T cells derived from blood from 50 healthy donors; test: Ex vivo T cell immunogenicity (EpiScreen assay); format: cell-based, human; conditions: T cells from 50 healthy donors, addition of AT2220
Text: By stabilizing the folded and active form of the rhGAA enzyme, AT2220 may mitigate ERT-induced immunogenicity since unfolded and aggregated proteins are generally more antigenic than properly folded proteins. […] The studies utilized Antitope Ltd.'s EpiScreen™ assay and are being repeated in samples from the Pompe patients in the study described by Examples 1-3.

GAA [2] = target: T1, GAA (Homo sapiens, UniProt P10253); test: Physical stability of rhGAA in neutral pH buffer (thermal denaturation, enzymatic activity); format: biochemical; parameters: purchased Genzyme Corporation; conditions: thermal denaturation and enzymatic activity
GAA [3] = target: T1, GAA; test: Tissue GAA levels (activity, Western blot) in mice after rhGAA with 1-deoxynojirimycin hydrochloride; format: in vivo, mouse; parameters: from tissue; host or cells: heart, diaphragm, quadriceps, gastrocnemius, triceps and tongue of GAA knock-out mice injected with rhGAA; conditions: GAA knock-out mice; 10, 100 or 1000 mg/kg PO 30 min before and 8, 16, 24 h after bolus IV rhGAA 10 mg/kg weekly; 2, 4, 7 days post-administration
Text: The effect of a single oral administration of 1-deoxynojirimycin hydrochloride on rhGAA tissue uptake was studied in GAA knock-out mice.

GAA [4] = test: rhGAA activity in WBC (PBMCs) of Pompe patients; format: in vivo, human
Text: GAA activity in WBCs will be determined in blood samples by a validated assay measuring enzyme activity using 4-MUG, with and without Con A. GAA protein levels will be measured by Western blotting using anti-human GAA antibody.

[5] = Banati et al. 2011, cited from earlier work
[6] = co-administration with rhGAA 20 mg/kg IV every other week for 8 weeks
[7] = Cohort 1 (50 mg AT2220 in Period 2), Day 2, arithmetic mean, N 4
[8] = Cohort 1 (50 mg AT2220 in Period 2), Day 7, arithmetic mean, N 4
[9] = Cohort 1 (50 mg AT2220 in Period 2), Time 0, arithmetic mean, N 4
[10] = Cohort 1 (50 mg AT2220 in Period 2), Time 4 h, arithmetic mean, N 4
[11] = Cohort 2 (100 mg AT2220 in Period 2), Day 2, arithmetic mean, N 6
[12] = Cohort 2 (100 mg AT2220 in Period 2), Day 3, arithmetic mean, N 3
[13] = Cohort 2 (100 mg AT2220 in Period 2), Day 7, arithmetic mean, N 3
[14] = Cohort 2 (100 mg AT2220 in Period 2), Time 0, arithmetic mean, N 6
[15] = Cohort 2 (100 mg AT2220 in Period 2), Time 4 h, arithmetic mean, N 6
[16] = Cohort 3 (250 mg AT2220 in Period 2), Day 2, arithmetic mean, N 6
[17] = Cohort 3 (250 mg AT2220 in Period 2), Day 3, arithmetic mean, N 3
[18] = Cohort 3 (250 mg AT2220 in Period 2), Day 7, arithmetic mean, N 3
[19] = Cohort 3 (250 mg AT2220 in Period 2), Time 0, arithmetic mean, N 6
[20] = Cohort 3 (250 mg AT2220 in Period 2), Time 4 h, arithmetic mean, N 6

## OC[C@H]1NC[C@H](O)[C@@H](O)[C@@H]1O [AT2220, (2R,3R,4R,5S)-2-hydroxymethyl-piperidine-3,4,5-triol]
Glycogen (GAA substrate); 10 or 30 mg/kg PO 30 min before rhGAA 20 mg/kg IV every other week for 8 weeks
  tissue glycogen levels: dose-dependent reduction
Glycogen (GAA substrate); [6]
  glycogen reduction vs rhGAA alone, biceps: ~1.4 fold
  glycogen reduction vs rhGAA alone, diaphragm: ~1.6 fold
  glycogen reduction vs rhGAA alone, gastrocnemius: ~2.7 fold
  glycogen reduction vs rhGAA alone, heart: approximately 2.3 fold
  glycogen reduction vs rhGAA alone, quadriceps: ~2.6 fold
  glycogen reduction vs rhGAA alone, soleus: ~1.2 fold
  glycogen reduction vs rhGAA alone, tongue: ~1.3 fold
  glycogen reduction vs rhGAA alone, triceps: ~2.2 fold
[1]
  immunogenicity of Myozyme and Lumizyme: may significantly reduce the immunogenicity
GAA [2]
  physical stability of rhGAA: significant concentration-dependent increases
GAA [3]
  tissue GAA levels: significant and dose-dependent increases

## rhGAA: human recombinant acid α-glucosidase; alglucosidase alfa (Myozyme/Lumizyme) enzyme replacement therapy given by intravenous infusion
GAA [4]; [7]
  rhGAA Activity in PBMCs, % Change from Period 1: −13.9%
  rhGAA Activity in PBMCs, Period 2/Period 1 Ratio: 0.9
GAA [4]; [8]
  rhGAA Activity in PBMCs, % Change from Period 1: 4.1%
  rhGAA Activity in PBMCs, Period 2/Period 1 Ratio: 1.0
GAA [4]; [9]
  rhGAA Activity in PBMCs, % Change from Period 1: 157%
  rhGAA Activity in PBMCs, Period 2/Period 1 Ratio: 2.6
GAA [4]; [10]
  rhGAA Activity in PBMCs, % Change from Period 1: −17.5%
  rhGAA Activity in PBMCs, Period 2/Period 1 Ratio: 0.8
GAA [4]; [11]
  rhGAA Activity in PBMCs, % Change from Period 1: 81.0%
  rhGAA Activity in PBMCs, Period 2/Period 1 Ratio: 1.8
GAA [4]; [12]
  rhGAA Activity in PBMCs, % Change from Period 1: −36.7%
  rhGAA Activity in PBMCs, Period 2/Period 1 Ratio: 0.6
GAA [4]; [13]
  rhGAA Activity in PBMCs, % Change from Period 1: −5.9%
  rhGAA Activity in PBMCs, Period 2/Period 1 Ratio: 0.9
GAA [4]; [14]
  rhGAA Activity in PBMCs, % Change from Period 1: −12.4%
  rhGAA Activity in PBMCs, Period 2/Period 1 Ratio: 0.9
GAA [4]; [15]
  rhGAA Activity in PBMCs, % Change from Period 1: −8.4%
  rhGAA Activity in PBMCs, Period 2/Period 1 Ratio: 0.9
GAA [4]; [16]
  rhGAA Activity in PBMCs, % Change from Period 1: 47.5%
  rhGAA Activity in PBMCs, Period 2/Period 1 Ratio: 1.5
GAA [4]; [17]
  rhGAA Activity in PBMCs, % Change from Period 1: 240%
  rhGAA Activity in PBMCs, Period 2/Period 1 Ratio: 3.4
GAA [4]; [18]
  rhGAA Activity in PBMCs, % Change from Period 1: 49.0%
  rhGAA Activity in PBMCs, Period 2/Period 1 Ratio: 1.5
GAA [4]; [19]
  rhGAA Activity in PBMCs, % Change from Period 1: 107%
  rhGAA Activity in PBMCs, Period 2/Period 1 Ratio: 2.1
GAA [4]; [20]
  rhGAA Activity in PBMCs, % Change from Period 1: 1028%
  rhGAA Activity in PBMCs, Period 2/Period 1 Ratio: 11.3
[5]
  administered ERT captured by circulating antibodies: approximately 40%
[5]; patients receiving ERT infusions
  Pompe patients with infusion associated reactions: approximately 50%

Source: patent US20150086530A1, “DOSING REGIMENS FOR THE TREATMENT OF POMPE DISEASE” (Amicus Therapeutics, Inc., priority 2012, published 2015)
